Laboratory results: patent US20230073183A1, “IMPROVED URICASE AND METHOD FOR TREATING HYPERURICEMIA USING SAME” (SHANGHAI JUNSHI BIOSCIENCES CO., LTD., priority 2019, published 2023)
Substitutions are numbered along the chain they refer to. Numbers in names are those of the source.

T1: Micrococcus uricase variant AG-2C13-PEG (A35C/S288C in AG-00-1, SEQ ID NO: 3; PEGylated) (Arthrobacter globiformis, UniProt D0VWQ1, A35C/S288C)
T1 construct: purified
T1 sequence (D0VWQ1 1-297 A35C/S288C): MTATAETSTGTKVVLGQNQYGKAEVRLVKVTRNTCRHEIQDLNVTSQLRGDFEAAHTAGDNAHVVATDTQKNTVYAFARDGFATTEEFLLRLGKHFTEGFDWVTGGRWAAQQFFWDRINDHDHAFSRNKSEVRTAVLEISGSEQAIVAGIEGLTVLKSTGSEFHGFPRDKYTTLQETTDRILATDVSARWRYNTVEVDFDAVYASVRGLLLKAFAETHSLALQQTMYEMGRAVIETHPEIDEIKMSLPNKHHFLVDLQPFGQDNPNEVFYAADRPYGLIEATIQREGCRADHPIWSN

T2: Micrococcus uricase variant AG-2C12-PEG (S142C/E216C in AG-00-1, SEQ ID NO: 3; PEGylated) (Arthrobacter globiformis, UniProt D0VWQ1, E216C/S142C)
T2 construct: purified
T2 sequence (D0VWQ1 1-297 S142C/E216C): T1 sequence (D0VWQ1 1-297 A35C/S288C) with C35A, S142C, E216C, C288S

T3: Micrococcus uricase variant AG-2C01-2-PEG (A35C/T194C in AG-00-1, SEQ ID NO: 3; PEGylated) (Arthrobacter globiformis, UniProt D0VWQ1, A35C/T194C)
T3 construct: purified
T3 sequence (D0VWQ1 1-297 A35C/T194C): T1 sequence (D0VWQ1 1-297 A35C/S288C) with T194C, C288S

T4: reference uricase MEDI4945 (SEQ ID NO: 2) (Arthrobacter globiformis, UniProt D0VWQ1, N33C/R49S/T11C)
T4 sequence (D0VWQ1 with tags, fused parts or gaps T11C/N33C/R49S): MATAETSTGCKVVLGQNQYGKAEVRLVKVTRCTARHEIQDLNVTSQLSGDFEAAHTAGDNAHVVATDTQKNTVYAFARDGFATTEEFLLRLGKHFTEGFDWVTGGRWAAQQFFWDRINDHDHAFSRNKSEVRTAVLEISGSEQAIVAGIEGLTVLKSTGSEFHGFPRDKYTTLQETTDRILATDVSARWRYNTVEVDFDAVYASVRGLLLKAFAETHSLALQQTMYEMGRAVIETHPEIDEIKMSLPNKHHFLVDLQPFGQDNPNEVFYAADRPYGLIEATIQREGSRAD

B1: reference uricase MEDI4945 (SEQ ID NO: 2) (Arthrobacter globiformis; N33C/R49S/T11C) (protein)
chain: T4 sequence (D0VWQ1 with tags, fused parts or gaps T11C/N33C/R49S)

Experiments:
Format in all cases: biochemical
[1] = molecular target: T1, Micrococcus uricase variant AG-2C13-PEG (A35C/S288C in AG-00-1, SEQ ID NO: 3; PEGylated); assay: Enzyme activity kinetic study of PEGylated uricase with uric acid; settings: Tris-HCl pH 8.5, 37° C.; turnover number, substrate converted within one second
Procedure: (§1) By using a method similar to that in Example 1 to introduce Cys mutations, the following molecules were prepared: AG-2C12, AG-2C13, AG-2C16, AG-2C17, AG-1C13-1, AG-2C01, AG-2C05-1, AG-2C01-1 and AG-2C12-1.
(§2) To 2 mg of a uricase (100 mM PBS buffer, pH=7.0, 150 mM NaCl) were sequentially added TCEP.HCl (0.5 mg, tris(2-carboxyethyl)phosphine hydrochloride) and M-MAL-PEG-10K (27.5 mg, maleimide polyethylene glycol, molecular weight of 10,000 Da). The mixture was allowed to react at room temperature for 2 h. The reaction mixture was purified by ion-exchange chromatography to obtain a PEGylated uricase.
(§3) The Cys mutation sites selected above were paired for PEGylation modification and uricase activity evaluation.
(§4) A. Enzyme Activity Kinetic Study of PEGylated […]
(§5) Tris-HCl buffer system (pH 8.5) was used. The stock solution for uricase working solutions was 2 mM uric acid, which was stored at 4° C. Process of enzyme activity assay:
(§6) The temperature was set at 37° C.
(§7) Substrate (uric acid) concentration gradients: 600 μmol, 500 μmol, 400 μmol, 200 μmol, 100 μmol, 50 μmol, 25 μmol, and 12.5 μmol.
(§8) 50 μL of the above uric acid solution and 30 μL of the above Tris-HCl buffer were first added to a 96-well plate and incubated at 37° C. for 20 min. Then 20 μL of an appropriately diluted uricase solution (0.004 mg/mL) was rapidly added to the 96-well plate. Procedure setting: reaction for 10 min, one data reading every 20 s, and initiation of reaction.

[2] = molecular target: T2, Micrococcus uricase variant AG-2C12-PEG (S142C/E216C in AG-00-1, SEQ ID NO: 3; PEGylated); assay: as above; settings: Tris-HCl pH 8.5, 37° C.; turnover number, substrate converted within one second
Procedure: as §1, §2, §3, §4, §5, §6, §7, §8

[3] = molecular target: T3, Micrococcus uricase variant AG-2C01-2-PEG (A35C/T194C in AG-00-1, SEQ ID NO: 3; PEGylated); assay: as above; settings: Tris-HCl pH 8.5, 37° C.; turnover number, substrate converted within one second
Procedure: as §1, §2, §3, §4, §5, §6, §7, §8

[4] = molecular target: T4, reference uricase MEDI4945 (SEQ ID NO: 2); assay: Enzyme activity kinetic study of reference uricase with uric acid; settings: Tris-HCl pH 8.5, 37° C.; turnover number, substrate converted within one second
Procedure: (§9) A reference uricase MEDI4945 was synthesized using a method similar to that described above, having an amino acid sequence of SEQ ID NO: 2. MEDI4945 is the uricase disclosed in International Application No. PCT/US2016/032415, having an amino acid sequence shown below:
as §4, §5, §6, §7, §8

[5] = substrate: O=c1[nH]c(=O)c2[nH]c(=O)[nH]c2[nH]1; assay: as above; settings: other: Tris-HCl pH 8.5, 37° C., uric acid 12.5-600 μmol
Procedure: as §9, §4, §5, §6, §7, §8

Molecule | Kcat [1] | Kcat [2] | Kcat [3] | Kcat [4] | Km [5]
O=c1[nH]c(=O)c2[nH]c(=O)[nH]c2[nH]1 [uric acid] | 3.6 | 5.3 | 5.4 | 2.6 | –
B1 | – | – | – | – | 101 µM
